Experimental data published in patent US20100249138A1, “MPZP: A SMALL MOLECULE CORTICOTROPIN-RELEASING FACTOR TYPE 1 RECEPTOR (CRF1) ANTOGONIST” (priority 2007, published 2010).
Like-named read-outs stand apart in the source and are kept apart here. No end group written: not given here.

How the values were obtained:
[1] = tested on: rat pituitary corticotropes; settings: cited from earlier work
[2] = tested on: plasma corticosterone; settings: rats; cited from earlier work
[3] = target: T1, CRF1 receptors (Rattus norvegicus, UniProt P35353); experiment: [125I]-Tyr0-sauvagine competition binding, rat cerebellar membrane homogenates; parameters: from tissue; host or cells: rat cerebellum, membrane homogenate; settings: six independent experiments, read-out: PIC50, displacement of specific [125I]-Tyr0-sauvagine binding (converted)
T1 sequence (P35353 24-415): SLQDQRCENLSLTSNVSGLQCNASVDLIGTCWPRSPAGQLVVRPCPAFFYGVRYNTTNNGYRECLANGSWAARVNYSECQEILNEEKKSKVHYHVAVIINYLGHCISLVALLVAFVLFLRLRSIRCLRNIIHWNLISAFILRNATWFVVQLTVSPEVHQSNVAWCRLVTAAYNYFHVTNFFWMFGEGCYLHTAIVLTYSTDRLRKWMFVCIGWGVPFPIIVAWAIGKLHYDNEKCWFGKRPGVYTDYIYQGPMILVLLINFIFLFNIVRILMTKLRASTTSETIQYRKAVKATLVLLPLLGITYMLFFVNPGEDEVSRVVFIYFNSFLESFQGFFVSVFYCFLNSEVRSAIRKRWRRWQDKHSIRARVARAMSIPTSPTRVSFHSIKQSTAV
Description: Binding activity of MPZP was determined in a competition assay using […] (2200 Ci/mmol; Perkin Elmer, Waltham, Mass.) as the radioligand. Cerebellum was homogenized in homogenizing buffer (Dulbecco's phosphate-buffered saline [PBS]:1.5 mM KH2PO4, 8.1 mM Na2HPO4, 2.7 mM KCl, 138 mM NaCl, pH 7.2, supplemented with 10 mM MgCl2, 2 mM EGTA) using a Polytron (Dispersing and Mixing Technology, Kinematica, Littau-Lucerne, Switzerland) at setting 6 for 2×15 seconds on ice. The homogenate was centrifuged at 45,000×g for 20 minutes at 4° C. The pellet was resuspended and spun at 45,000×g for 20 minutes at 4° C. The final pellet was resuspended in assay buffer (homogenizing buffer supplemented with protease inhibitor; 1 tablet/10 ml; Sigma CAT#58829-20TAB, St. Louis, Mo., pH 7.4) using a Polytron.
Med. Chem. (2000) 8:181-189], whose structural formula is shown below.
Total binding was determined using assay buffer in lieu of a CRF1 antagonist, and nonspecific binding was determined in the presence of 1 μM unlabeled sauvagine. The final radioligand concentration was 0.2 nM, and the reaction was incubated at room temperature for 2 hours. […] The pellet-containing tip was cut off and counted in an automated 10-detector gamma counter (MicroMedic Apex, ICN Biomedical, Costa Mesa, Calif.) at 80% efficiency. […]

[4] = tested on: precipitated-withdrawal induced anxiety-like behavior; experiment: Defensive burying test during mecamylamine-precipitated nicotine withdrawal; type: in vivo, rat; settings: for Burying / Freezing / Grooming / Latency to bury / Rearing / Resting: Vehicle + Mecamylamine
Description: Nicotine hydrogen tartrate salt (Sigma, Natick) was dissolved in saline at pH 7.4 and experimenter-administered via minipump or self-administered via indwelling jugular catheter. Doses are expressed as free base. Mecamylamine (Sigma; Natick, Mass.) was dissolved in saline and administered i.p. (1 ml/kg). The CRF1 antagonist (N,N-bis(2-methoxyethyl)-3-(4-methoxy-2-methylphenyl)-2,5-dimethyl-pyrazolo-[1,5α]pyrimidin-7-amine, or MPZP) was synthesized at The Scripps Research Institute by Dr. P. Wirshing, dissolved in 20% hydroxypropyl beta-cyclodextrin (Cavitron, Cargill) in isotonic saline at pH 4.5 and administered s.c. (2 ml/kg, 45 to 60 min before testing). Rat/human CRF was supplied by Dr. Jean Rivier, The Salk Institute. CRF was dissolved in 1× PBS (pH 7.4) and prepared fresh few minutes before intracerebral injection. The doses and time of injections were selected based on previous studies [Richardson et al., Program No. 783. 4 Neuroscience Meeting Planner. Atlanta, Ga.: Society for Neuroscience, OnlineI (2006); Specio et al., Program No. 777. 11 Neuroscience Meeting Planner. Washington, D.C.: Society for Neuroscience, Online (2004)].
Rats were subcutaneously implanted with osmotic minipumps delivering either saline (n=33) or nicotine (n=31) (3.16 mg/kg/day, free base, s.c.) as described above. After 14 days of pump exposure, testing was performed 5-8 hours into the dark cycle in a standard cage with 2 inches of bedding (wood shavings) along the bottom and a small hole centered in one side one inch above the bedding to accommodate the shock-probe. Rats were habituated (45 minutes) to the test cage for 2 days prior to testing. On the test day, mecamylamine or its vehicle were administered 30 minutes before behavioral testing, and the CRF1 antagonist or its vehicle were administered 45 minutes before behavioral testing (n=7-9 per group). On contact with the probe and shock delivery (using a Coulbourn precision shocker, 1.5 mA, AC, <1 s), verified by a startle response, the probe was deactivated. The latency and duration of probe-directed burying, rearing, resting, grooming, and freezing were measured from videotape over a 10 minutes period by an experimenter blind to the subject treatment condition using a computer program.

[5] = tested on: extracellular CRF-L-IR in the central nucleus of the amygdala; experiment: In vivo microdialysis and radioimmunoassay of CRF-like immunoreactivity in the central nucleus of the amygdala; parameters: species or system rat; settings: mecamylamine 1.5 mg/kg i.p.
Description: The changes in interstitial levels of CRF-like-immunoreactivity (CRF-L-IR) in the central nucleus of the amygdala were examined during mecamylamine-precipitated withdrawal (1.5 mg/kg, ip). Rats were subcutaneously implanted with osmotic minipumps (model 2m12, 14 days, 5 μL/hour; Durect Corporation, Palo Alto, Calif.) delivering either saline (non-dependent, n=5) or nicotine (nicotine-dependent, n=7) (3.16 mg/kg/day, free base, s.c.) and a microdialysis guide cannula (SciPro Inc., Sanborn N.Y., USA) stereotaxically positioned 1 mm above the central nucleus of the amygdala using the following coordinates (AP −3.3 mm; ML ±4.2 mm; V −6.5 mm, from dura with flat skull). After 14 days of pump exposure, a microdialysis probe (1 mm PES membrane, 15 kDA MW cutoff; SciPro Inc., Sanborn N.Y., USA) was lowered into the guide cannula and allowed to equilibrate for 12 hours (1 μl/min flow rate, artificial cerebrospinal fluid). […]
Dialysate CRF-like immunoreactivity was quantified with a sensitive and specific solid-phase radioimmunoassay (RIA) adapted from Zorrilla et al. Psychopharmacology (Berl). […] Wells were rinsed, blotted dry and separated, and residual radioactivity was counted by a gamma counter for 5 minutes per well.

[6] = Debruyne et al. 2003; cited from earlier work
[7] = tested on: anxiety-like behavior of naive rats; experiment: Defensive burying test after bilateral CRF infusion in the central nucleus of the amygdala; type: in vivo, rat; settings: CRF 30 pmol total dose, bilateral intra-amygdala
Description: To confirm that increases of CRF in the central nucleus of the amygdala elicit anxiety-like behavior, anxiety-like behavior was measured using the defensive burying test, after bilateral infusion of CRF (30 pmol total dose) or vehicle in the central nucleus of the amygdala of naive rats one minute before beginning of the burying test. CRF administered directly into the amygdala increased the time spent burying and decreased the latency to bury during the first 5 minutes after infusion (Table 2),
Rats were anesthetized with an isoflurane-oxygen mixture, and 26-gauge stainless steel guide cannulas (Plastics One, Roanoke, Va.) aimed 2 mm above the central nucleus of the amygdala stereotaxically were implanted bilaterally: AP −2.6 mm; ML ±4.2 mm; V −5.2 mm, from dura, with flat skull (Paxinos and Watson, 1998). The guide cannulas were secured to the skull with dental cement and anchor screws, and guide cannulas were maintained with stylets. Intracerebral injections were administered with the use of injectors (33-gauge; Plastics One) that projected 2 mm past the guide cannula to the central nucleus of the amygdala. The injectors were attached to 70 cm of calibrated polyethylene-20 tubing preloaded with drug solution. This cohort of rats had been extensively handled previously in the context of a food intake study, in which they received administration of a CRF1 receptor antagonist subcutaneously and into the central nucleus of the amygdala in a Latin-square design. A washout period of 7 days was imposed before the present study with all subjects maintained on chow, during which animals were handled daily. Rats were randomly assigned to CRF vs. vehicle conditions balanced for previous diet history, which was statistically unrelated to performance in the defensive burying test. The CRF group (n=5) was infused bilaterally (30 pmol total dose) with a volume of 0.25 μL/side over 30 seconds using Hamilton microsyringes and 2 infusion pumps (Harvard Apparatus, Holliston, Mass.). The control group (n=5) received the same volume of PBS. Injectors were removed from guide cannulae 1 minute after the end of the infusions, and rats were returned to the home cage for 1 minute before being tested in the defensive burying test.

[8] = tested on: cocaine self-administration; settings: cited from earlier work
[9] = tested on: cocaine-induced conditioned place preference; settings: rats; cited from earlier work
[10] = nicotine-dependent rats, mecamylamine injection

For `CCC(CC)Nc1cc(C)nc2c(-c3ccc(OC)cc3C)c(C)nn12` [DMP904], the ACTH release [1] is given as “inhibited”, the “stress-induced increase of plasma corticosterone” value [2] is given as “dose-dependently inhibited” and the IC50 [3] is given as 2.14 nM.
`CNC1(C)C2CCC(C2)C1(C)C` (centres unmarked) [mecamylamine, reference compound] gave a Burying ([4]; nicotine pump) of 271 ± 46 s, a Freezing ([4]; nicotine pump) of 1 ± 1 s and a Grooming ([4]; nicotine pump) of 16 ± 5 s. The Latency to bury ([4]; nicotine pump) was 31 ± 9 s, the Rearing ([4]; nicotine pump) was 105 ± 25 s and the Resting ([4]; nicotine pump) was 49 ± 21 s. The “change in latency to bury compared to vehicle injection” value [4, 10] was −70%, the “change in time spent burying compared to vehicle injection” value [4, 10] was “+243%” and the anxiety-like behavior ([4]; non-dependent rats, mecamylamine injection) was “did not alter”. It also gave a Burying ([4]; saline pump) of 135 ± 39 s, a Freezing ([4]; saline pump) of 1 ± 1 s and a Grooming ([4]; saline pump) of 30 ± 12 s. It also gave a Latency to bury ([4]; saline pump) of 87 ± 25 s, a Rearing ([4]; saline pump) of 118 ± 14 s and a Resting ([4]; saline pump) of 67 ± 24 s. For the same compound, the “increase of CRF-L-IR in the central amygdala compared with baseline” value ([5]; nicotine-dependent rats) was “over 500%”, the “increase of CRF-L-IR in the central amygdala” value ([5]; saline-treated (non-dependent) rats) was “not observed” and the pharmacokinetic half-life [6] was “about 1 hour”.
In the case of “CRF: Corticotropin-releasing factor, a 41 amino-acid residue peptide; rat/human CRF infused into the central nucleus of the amygdala (SEEPPISLDLTFHLLREVLEMARAEQLAQQAHSNRKLMEII; ends and bridges not checked; UniProt P06850 154-194, looked up)”, the Grooming [7] is reported as 30 ± 27 s, the “Latency to bury” value [7] is reported as 165 ± 91 s and the Rearing [7] is reported as 91 ± 15 s. For the same compound, the Burying ([7]; first 5 minutes after infusion) was 7.1 ± 4.7 s.
For `CCCCN(CC)c1nc(C)nc2c1c(C)cn2-c1c(C)cc(C)cc1C` [CP-154,526], the cocaine self-administration ([8]; 0.5 mg/kg/injection cocaine, rats) is given as “reduced”, the cocaine self-administration ([8]; rats with limited daily drug access (1 h/day), pretreatment) is given as “dose-dependent decreases” and the food-reinforced responding ([8]; rats, pretreatment) is given as “does not affect”. For the same compound, the “cocaine-induced conditioned place preference” value [9] was “reduced”.
